Measurements as given in patent publication US20260226011A1, “COMPOSITIONS AND METHODS FOR TREATING OCULAR DISEASES OR DISORDERS” (Translatum Medicus Inc., priority 2023, published 2026).

How the values were obtained:
[1] = test system: monocyte chemoattractant protein-1 (MCP-1); assay: MCP-1 (ccl2) mRNA expression (qPCR) after LPS stimulation of PMA-differentiated THP-1 macrophages; format: cell-based, Human; settings: 150 μM compound, LPS 100 ng/ml for 1 hour, qPCR delta delta Ct (FIG. 1)
Experimental: Human THP-1 monocytes were seeded at 5×10^5-9×10^5 in a 6-well plate. Phorbol myristate acetate (5 ng/ml, PMA) was added for 48-72 hours, to induce differentiation from monocytes to macrophages. Cells were then starved for 3 hours.
Cells were harvested in RNALater (Qiagen), and prepared for quantitative polymerase chain reaction (qPCR). Total RNA was isolated using Trizol Reagent (Life Technologies) based on the manufacturer's protocol and its quantity and quality checked with a Nanodrop 2000 spectrophotometer (Thermo Scientific, USA). QuantiTect Reverse Transcription Kit with separate genomic DNA removal step (Qiagen) was used based on the manufacturer's protocol. Briefly, 0.5 μg total RNA was used for each sample during reverse transcription and the resulting cDNA solution was further diluted to 10 ng/ul with nuclease free water and stored at-20 C.
PowerUp SYBR Green Master Mix (ThermoFisher Scientific) was used for quantitative PCR based on manufacturer's protocol. […]
Relative quantification method based on delta delta Ct was used for comparison of gene expression levels in various arms. Briefly, relative quantification and statistical analysis were performed using Relative Expression Software Tool-Multiple Condition Solver (REST-MCS, V2) based on the protocol by M. W. Pfaffl & G. W. Horgan (2006), which is incorporated by reference herein in its entirety.

[2] = Acid hydrolysis of bindarit conjugates in 12M HCl, read by NMR; format: physicochemical; settings: for hydrolysis in 12M HCl: 12M HCl at 40° C., overnight; for conjugate hydrolized (acid hydrolysis): 12M HCl, 40° C., stirred 16 hours, NMR in D2O
Experimental: Acid hydrolysis: 4 mg bindarit-taurine conjugate was added to 4 mL 12M HCl. The reaction mixture was heated to 40° C. and stirred for 16 hours, followed by concentration of the reaction mixture. About 70% (mol %) of the bindarit-taurine conjugate was hydrolized as identified by NMR in D2O (FIG. 10).
3 mg bindarit-carnosine conjugate was added to 3 mL 12M HCl. The reaction mixture was heated to 40° C. and stirred for 16 hours, followed by concentration of the reaction mixture. About 50% (mol %) of the bindarit-carnosine conjugate was hydrolized as identified by NMR in D2O (FIG. 12).

SMILES | ability to reduce MCP-1 mRNA [1] | hydrolysis in 12M HCl [2] | conjugate hydrolized (acid hydrolysis) [2]
CCOC(=O)C(C)(C)OCc1nn(Cc2ccccc2)c2ccccc12 [bindarit ethyl ester, ethyl 2-((1-benzl-1H-indazol-3-yl)methoxy)-2-methylpropanoate] | equally as efficacious as bindarit | – | –
CC(C)(OCc1nn(Cc2ccccc2)c2ccccc12)C(=O)NCCC(=O)N[C@@H](Cc1cnc[nH]1)C(=O)O [bindarit-carnosine conjugate] | – | 50% | About 50 % (mol %)
CC(C)(OCc1nn(Cc2ccccc2)c2ccccc12)C(=O)NCCS(=O)(=O)O [bindarit-taurine conjugate] | – | 70% | About 70 % (mol %)
